Here are results for one substance from patent US20230293639A1, “SYSTEMS, DEVICES, COMPOSITIONS, AND METHODS FOR TREATING DIABETES” (Abvance Therapeutics, Inc., priority 2020, published 2023).

The test system of this assay is patients with Type 1 diabetes. The assay is described as follows: Liquid meal challenge with IV insulin alone or IV insulin-glucagon co-infusion (4:1). Type of assay: in vivo, human. The following applies: for Requiring IV glucose rescue: subjects of eleven, rescue if plasma glucose dropped to 50 mg/dl. On the procedure:
Referring now to FIG. 12, a study protocol conducted by the applicant in human patients with Type 1 diabetes is illustrated, consistent with the present inventive concepts. […] The liquid meal challenge allows a clinically relevant assessment of plasma glucose rise and fall. […] By protocol, if plasma glucose dropped to 50 mg/dl, a variable glucose infusion was applied to maintain the glucose level at approximately 50 mg/dl, to avoid more serious hypoglycemia from occurring.
FIG. 13 illustrates the glucose excursion following the meal challenge for eleven patients (also referred to as “subjects” herein). […] The glucose excursion data is also presented below in Table 1, which compares peak plasma glucose levels and AUCs (area under curve) for the two treatment groups.

As for insulin, the “subjects that had to be rescued” value (7 subjects whose glucose fell below the pre-meal value in the last 30 minutes) stood at 5. The “average glucose infusion rate” value (7 subjects whose glucose fell below the pre-meal value, last 30 minutes) was found to be 5.9 ± 2.2 mg/kg/min. Under “eleven Type 1 diabetes patients”, the “Time <70 mg/dl” value is reported as 20 ± 7%. Further, the “ΔPG 0-120AUC” value (eleven Type 1 diabetes patients, 0-120 min after liquid meal) was found to be 8162 ± 1514 mg·min/dL. Besides, under “eleven Type 1 diabetes patients, 0-180 min after liquid meal”, the “ΔPG 0-180AUC” value worked out at 10501 ± 3014 mg·min/dL. Where the note is “eleven Type 1 diabetes patients, after liquid meal”, the “Peak PG” value was determined as 224 ± 18 mg/dL. In addition, the “Fasting PG” value (eleven Type 1 diabetes patients, before liquid meal) was 121 ± 5 mg/dL. Besides, the “sympathetic central nervous system response to hypoglycemia (venous plasma norepinephrine and epinephrine)” value (four patients) is “elevations of venous plasma norepinephrine and epinephrine”. Moreover, the “average glucose infusion rate over the last 30 minutes” value (in all subjects (eleven-subject comparison)) is 3.8 ± 1.6 mg/kg/min. Also, the PG nadir (lowest point during insulin-alone arm vs equivalent time point during insulin-glucagon arm) worked out at 51 ± 4.0 mg/dL. In addition, the “average plasma glucose nadir” value (seven subjects with plasma glucose <80 mg/dl in insulin-alone arm, matching time point in insulin-glucagon arm) was 50 ± 4 mg/dL. For the same substance, the “Requiring IV glucose rescue” value reads like this: (listed as Insulin-Alone) 5/11; (listed as insulin-alone) “Five of eleven”. Besides, for the setting “subset of four patients with more complete hormone analysis”, the “patients rescued with glucose infusions” value is given as “Three out of the four”.
